The record followed here is patent US4039652A, “Column method of immunoassay employing an immobilized binding partner” (Miles Laboratories, Inc., priority 1973, dated 1977).

The test system of one test is digitoxin antibodies. The test is described as follows: Column radioimmunoassay for digitoxin, Example 4. The format is binding, rabbit. The following applies: control = 100%, PBS buffer with 0.1% Tween 20. How it is done:
90 mg of digitoxin was suspended in 4 ml of ethanol at ambient temperature. 4 ml of a 0.1M sodium metaperiodate solution was added dropwise. The resulting solution was stirred for 25 minutes and 4 drops of 0.1M ethylene glycol was added. This solution was slowly added to 130 mg of bovine serum albumin in 4 ml of water previously adjusted to pH 9.5 with 5% K2 CO3. The pH was maintained between 9.0 and 9.5 with 5% K2 CO3. After 45 minutes, 0.05 g of NaBH4 in 4 ml of water was added. After 3 hours the pH was lowered to 6.5 with 1M formic acid. After 1 hour, the pH was raised to pH 8.5 with 1M NH4 OH and the mixture was dialyzed against distilled water overnight at 4° C. The next day, the suspension was centrifuged for 2 hours at 1500 rpm. The supernatant was concentrated to 6 ml in an Amicon U-2 ultrafilter, available from Amicon Corporation, Lexington, Massachusetts, and lyophilized.
The same procedure as described in Example 3 was followed except that the digitoxin-bovine serum albumin conjugate was prepared according to the method described in procedure a. above and this conjugate was dissolved in a few drops of dilute NaOH before being mixed with the PBS buffer.
The same procedure as described in Example 3 was followed.
The same procedure as described in Example 3 was followed except that the columns were equilibrated with 10 ml of PBS buffer containing 0.1% Tween 20, a detergent available from the Atlas Powder Company, Wilmington, Delaware, and that PBS buffer containing 0.1% Tween 20 was used in place of PBS buffer. The standard digitoxin solutions were prepared to the following concentrations: 5 ng/ml, 10 ng/ml, 20 ng/ml, 30 ng/ml, 40 ng/ml, and 50 ng/ml.
The results were as follows (with % bound being calculated based on setting 100% bound as the % bound of the control): […]

A further test has as its system digoxin antibodies. The test is described as follows: Column radioimmunoassay for digoxin (competition with 3-0-succinyl digoxigenin tyrosine 125I). The following applies: control = 100%, 30 + 30 minutes, pH 7.0. It is filed as binding, rabbit. How it is done:
400 mg of digoxin was suspended in 20 ml of absolute ethanol at ambient temperature. 0.45 g of sodium metaperiodate in 20 ml of water was added dropwise with stirring. After 25 minutes, 0.5 ml of 1M ethylene glycol was added. Five minutes later, this reaction mixture was added dropwise with stirring to 560 mg of bovine serum albumin in 20 ml of water previously adjusted to pH 9.5 with 5% K2 CO3. The pH was maintained between 9.0 and 9.5 by the dropwise addition of 5% K2 CO3. After 45 minutes 0.3 g of sodium borohydride in 20 ml of water was added. Three hours later, the pH was lowered to 6.5 with 1M formic acid. After 1 hour, the pH was raised to 8.5 with 1M NH4 OH. The entire reaction mixture was then dialyzed against distilled water overnight at 4° C. The next day, the pH was lowered to 4.5 with 0.1N HCl. After 1 hour at ambient temperature and 3 hours at 4° C., the suspension was centrifuged for 1 hour at 1500 rpm. The precipitate was dissolved in 21 ml of 0.15M NaHCO3, dialyzed against distilled water for 4 days, and lyophilized.
Rabbits were injected with inocula consisting of a 50/50 mixture of 4 mg/ml digoxin-bovine serum albumin conjugate, prepared according to the method described in procedure a., in 0.0075M phosphate-0.15M NaCl buffer (pH 7.0) and Freund's complete adjuvant. Four sites along the neck and back of the animals and each footpad were injected with 0.1 ml of this mixture. This procedure was repeated on the first and third weeks. Also, every second week the rabbits were injected intramuscularly with 0.4 ml of the inoculum. At one month intervals, ear bleedings were taken.
One (1.0) gram of CNBr-activated Sepharose 4B available from Pharmacia AB, Uppsala, Sweden, was added to 200 ml of 0.001N HCl, mixed for 15 minutes, and filtered under vacuum. The swollen Sepharose 4B was then washed with 200 ml of PBS buffer (0.0075 M phosphate-0.15M NaCl, pH 7.0) and resuspended in 3.0 ml of PBS buffer. Whole, unfractionated, diluted antiserum from procedure b. was added with stirring. The reaction mixture was stirred for 2 hours at ambient temperature and then for 22 hours at 4° C. The antibody-coupled Sepharose 4B suspension was washed with 400 ml of PBS buffer and an equal volume of PBS buffer containing 0.1% NaN3 was added. This mixture was in turn diluted with the addition of a 50% suspension of Sepharose 4B in distilled water to give a final dilution of antibody-coupled Sepharose 4B which would bind about half of the radioactive labeled antigen following procedure d. below where the fluid sample tested contained no digoxin. Two (2.0) ml volumes of the diluted antibody-coupled Sepharose 4B were added to 3 ml plastic Stylex syringes, available from Pharmaseal Laboratories, Glendale, California, fitted with polyethylene support disks to give 1 ml Sepharose 4B columns.
The columns were then equilibrated with 10 ml volumes of PBS buffer and allowed to drain. Standard digoxin solutions were prepared for the following digoxin concentrations: 0.5 ng/ml, 1.0 ng/ml, 2.0 ng/ml, 3.0 ng/ml, 4.0 ng/ml, and 5.0 ng/ml. A control containing no digoxin and the six digoxin standards were added to columns prepared according to procedure c. above in 0.5 ml volumes and allowed to incubate for 30 minutes. The reference sample containing 3-0-succinyl digoxigenin tyrosine ^125 I solution was then added to each column in 0.5 ml portions and allowed to incubate for 30 minutes. The columns were then counted using a Gammacord gamma counter. The columns were washed three times with 3.0 ml volumes of PBS buffer and counted again. The results were as follows (with % bound being calculated based on setting 100% as the % bound of the control): […]

Test [1] deals with HPL antibodies. The test is described as follows: Column enzyme immunoassay for HPL with peroxidase labeled HPL, Example 6. It is filed as binding. Conditions: for % Color Bound: control = 100; for OD460: optical density of washings at 460 nm (control 1.2). The procedure:
HPL was labeled with peroxidase according to the method described in Immunochemistry 6: 43(1969) with the following modifications: 10 mg (HPL and 10 mg horseradish peroxidase were dissolved in 1.4 ml of 0.05M carbonate buffer (pH 9), 0.05 ml of 3% glutaraldehyde solution was added to the mixture. The mixture was then rotated at ambient temperature for 90 minutes and then dialyzed against 128 ml of 0.1M borate buffer (pH 8) with several buffer changes.
The same procedure as in Example 1b was followed.
The packed columns were equilibrated by adding 20 ml portions of a borate buffer (pH 9) to the columns and allowing them to drain. The borate buffer was prepared as in Example 1c. HPL standards were prepared for the following HPL concentrations 1000 ng/ml and 62 ng/ml. A control containing no HPL and the two HPL standards were added to columns, prepared according to procedure b above in 0.5 ml volumes and allowed to incubate for 25 minutes. The reference sample containing peroxidase labeled HPL, prepared as in procedure a. above, was then added to each column in 0.5 ml portions and allowed to incubate for 25 minutes. The columns were washed with 10 ml volumes of 0.1M borate buffer (pH 8) followed by 3 ml volumes of 0.1M phosphate buffer (pH 6). A substrate-indicator solution, prepared by mixing 0.28 ml of 0.03% H2 O2 in water, 0.1 ml of 0.25% 3,3'-dimethylbenzidine, and 0.12 ml of 0.1M phosphate buffer (pH 6), was added to each column and allowed to incubate for 10 minutes. The columns were each washed with a 3 ml of volume of 0.1N HCl and the optical density (OD) of the washings were read at 460 nm with the following results: […]

For test [2], the system named is HPL antibodies. In words: Column saturation radioimmunoassay for human placental lactogen (competition with 125I-HPL), Example 2. The format is binding, rabbit. The following applies: control = 100%, 30 minutes, pH 8.0. The procedure: Rabbits were injected with priming inocula consisting of a 50/50 mixture of 2.8 mg/ml HPL antigen in physiological saline solution (0.9%) and Freund's complete adjuvant. Each footpad was injected with 0.2 ml of this mixture. On days 21, 23, 56, 58, 91, 93, 126 and 128, 0.5 ml of booster inocula per day was injected intravenously into the animals. The booster inocula consisted of 0.7 mg/ml HPL antigen in physiological saline solution. Test bleedings were made on days 36 and 70, and on day 140 the animals were exsanguinated
The columns were prepared as in Example 1 using whole unfractionated HPL antiserum from procedure a. above.
The procedure as in Example 1c. was followed except that the borate-human serum albumin buffer was prepared to pH 8.0, the incubation times were 30 minutes, and the reference sample contained HPL labeled with ^125 I. […] The results were as follows (with % bound being calculated based on setting 100% bound as the % bound of the control): […]

In the case of `C[C@H]1O[C@@H](O[C@H]2[C@@H](O)C[C@H](O[C@H]3[C@@H](O)C[C@H](O[C@H]4CC[C@@]5(C)[C@H](CC[C@@H]6[C@@H]5CC[C@]5(C)[C@@H](C7=CC(=O)OC7)CC[C@]65O)C4)O[C@@H]3C)O[C@@H]2C)C[C@H](O)[C@@H]1O` [Digitoxin, digitoxin], the “% Bound” value in the test on digitoxin antibodies (Digitoxin concentration 5.0 ng/ml) is 83%; in the test on digitoxin antibodies (Digitoxin concentration 10.0 ng/ml), 73.5%; with digitoxin antibodies (Digitoxin concentration 20.0 ng/ml), 64%; in the test with digitoxin antibodies (Digitoxin concentration 30.0 ng/ml) it was 56.6%; with digitoxin antibodies (Digitoxin concentration 40.0 ng/ml), 50.2%; with digitoxin antibodies (Digitoxin concentration 50.0 ng/ml), 42%.
Consider `C[C@H]1O[C@@H](O[C@H]2[C@@H](O)C[C@H](O[C@H]3[C@@H](O)C[C@H](O[C@H]4CC[C@@]5(C)[C@H](CC[C@@H]6[C@@H]5C[C@@H](O)[C@]5(C)[C@@H](C7=CC(=O)OC7)CC[C@]65O)C4)O[C@@H]3C)O[C@@H]2C)C[C@H](O)[C@@H]1O` [Digoxin, digoxin], for which the “% Bound” value is on record as 92% with digoxin antibodies (Digoxin concentration 0.5 ng/ml); 79.5% in the test on digoxin antibodies (Digoxin concentration 1.0 ng/ml); 60.2% with digoxin antibodies (Digoxin concentration 2.0 ng/ml); 49.0% in the test on digoxin antibodies (Digoxin concentration 3.0 ng/ml); 41.3% with digoxin antibodies (Digoxin concentration 4.0 ng/ml); 34.7% with digoxin antibodies (Digoxin concentration 5.0 ng/ml).

B1: HPL: human placental lactogen (HPL) (protein, UniProt P0DML2 27-217, looked up)
Chorionic somatomammotropin …: VQTVPLSRLFDHAMLQAHRAHQLAIDTYQEFEETYIPKDQKYSFLHDSQTSFCFSDSIPTPSNMEETQQKSNLELLRISLLLIESWLEPVRFLRSMFANNLVYDTSDSDDYHLLKDLEEGIQTLMGRLEDGSRRTGQILKQTYSKFDTNSHNHDALLKNYGLLYCFRKDMDKVETFLRMVQCRSVEGSCGF
Take B1: the entries for the “% Color Bound” value in the test with HPL antibodies [1] (HPL concentration 62 ng/ml) and with HPL antibodies [1] (HPL concentration 1000 ng/ml) were 63% and 35%, respectively. The OD460 is 0.96 with HPL antibodies [1] (HPL concentration 62 ng/ml) and 0.78 in the test on HPL antibodies [1] (HPL concentration 1000 ng/ml). Moreover, the “% Bound (labeled HPL)” value was 98% in the test on HPL antibodies [2] (HPL concentration 1 ng/ml), 70% in the test on HPL antibodies [2] (HPL concentration 15 ng/ml), 42% with HPL antibodies [2] (HPL concentration 62 ng/ml) and 9% in the test on HPL antibodies [2] (HPL concentration 1000 ng/ml).
